Measured values reported in PubChem BioAssay (NCI).
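Briefly, cells in 96-well plates were exposed to five compound concentrations for 48 h, and endpoints were estimated by linear interpolation. Abbreviation: GI50, concentration required for 50% inhibition of growth. At the TGI there is no net growth.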

Assays:
Assay in all cases: growth of human tumour cells (NCI), 48 h
786-0 renal = tested on: 786-0 renal
A498 renal = tested on: A498 renal
A549 NSCLC = tested on: A549 NSCLC
ACHN renal = tested on: ACHN renal
BT-549 breast = tested on: BT-549 breast
CAKI-1 renal = tested on: CAKI-1 renal
CCRF-CEM leukemia = tested on: CCRF-CEM leukemia
COLO 205 colon = tested on: COLO 205 colon
DU-145 prostate = tested on: DU-145 prostate
HCC-2998 colon = tested on: HCC-2998 colon
HCT-116 colon = tested on: HCT-116 colon
HCT-15 colon = tested on: HCT-15 colon
HOP-62 NSCLC = tested on: HOP-62 NSCLC
HOP-92 NSCLC = tested on: HOP-92 NSCLC
HS 578T breast = tested on: HS 578T breast
HT29 colon = tested on: HT29 colon
IGROV1 ovarian = tested on: IGROV1 ovarian
K-562 leukemia = tested on: K-562 leukemia
KM12 colon = tested on: KM12 colon
LOX IMVI melanoma = tested on: LOX IMVI melanoma
M14 melanoma = tested on: M14 melanoma
MALME-3M melanoma = tested on: MALME-3M melanoma
MCF7 breast = tested on: MCF7 breast
MDA-MB-231 breast = tested on: MDA-MB-231 breast
MDA-MB-435 = tested on: MDA-MB-435
MOLT-4 leukemia = tested on: MOLT-4 leukemia
NCI-H226 lung = tested on: NCI-H226 lung
NCI-H23 lung = tested on: NCI-H23 lung

Structure (SMILES): COc1ccc(/C=C/C(=O)c2cccc(B(O)O)c2)cc1O
- GI50 (786-0 renal): 4.33 µM
- TGI (786-0 renal): 40.8 µM
- GI50 (A498 renal): 2310 nM
- TGI (A498 renal): 11.2 µM
- GI50 (A549 NSCLC): 3.35 µM
- TGI (A549 NSCLC): 46.9 µM
- GI50 (ACHN renal): 4.59 µM
- TGI (ACHN renal): 71.1 µM
- GI50 (BT-549 breast): 2820 nM
- TGI (BT-549 breast): 14.2 µM
- GI50 (CAKI-1 renal): 3.43 µM
- TGI (CAKI-1 renal): 19.3 µM
- GI50 (CCRF-CEM leukemia): 3.13 µM
- TGI (CCRF-CEM leukemia): 14.1 µM
- GI50 (COLO 205 colon): 13 µM
- TGI (COLO 205 colon): 27.5 µM
- GI50 (DU-145 prostate): 2800 nM
- TGI (DU-145 prostate): 7.88 µM
- GI50 (HCC-2998 colon): 2670 nM
- TGI (HCC-2998 colon): 7.47 µM
- GI50 (HCT-116 colon): 2550 nM
- TGI (HCT-116 colon): 10.7 µM
- GI50 (HCT-15 colon): 2440 nM
- TGI (HCT-15 colon): 12.3 µM
- GI50 (HOP-62 NSCLC): 4.24 µM
- TGI (HOP-62 NSCLC): 18.6 µM
- GI50 (HOP-92 NSCLC): 1420 nM
- TGI (HOP-92 NSCLC): 29.7 µM
- GI50 (HS 578T breast): 2280 nM
- TGI (HS 578T breast): 8.87 µM
- GI50 (HT29 colon): 9.77 µM
- TGI (HT29 colon): 44.4 µM
- GI50 (IGROV1 ovarian): 5.39 µM
- TGI (IGROV1 ovarian): 33 µM
- GI50 (K-562 leukemia): 1330 nM
- TGI (K-562 leukemia): > 100 µM
- GI50 (KM12 colon): 2510 nM
- TGI (KM12 colon): 6.47 µM
- GI50 (LOX IMVI melanoma): 2070 nM
- TGI (LOX IMVI melanoma): 5.37 µM
- GI50 (M14 melanoma): 4.23 µM
- TGI (M14 melanoma): 18.6 µM
- GI50 (MALME-3M melanoma): 15.3 µM
- TGI (MALME-3M melanoma): 32.1 µM
- GI50 (MCF7 breast): 2210 nM
- TGI (MCF7 breast): 12.4 µM
- GI50 (MDA-MB-231 breast): 3.44 µM
- TGI (MDA-MB-231 breast): > 100 µM
- GI50 (MDA-MB-435): 1890 nM
- TGI (MDA-MB-435): 4.57 µM
- GI50 (MOLT-4 leukemia): 4.04 µM
- TGI (MOLT-4 leukemia): > 100 µM
- GI50 (NCI-H226 lung): 4.79 µM
- TGI (NCI-H226 lung): > 100 µM
- GI50 (NCI-H23 lung): 4.67 µM
- TGI (NCI-H23 lung): 22.7 µM
